Measurements taken from ChEMBL document CHEMBL1201862, “PubChem BioAssay data set” (2004).
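A five-concentration, 48-hour dose response in 96-well plates underlies each endpoint, interpolated linearly between surrounding concentrations. At the GI50, growth is halved.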 Activity calls are given as the source filed them. No stated cut-off is given here; in the data, active = GI50 up to about 1.1 µM and inactive = higher.

Assays:
Assay in all cases: NCI anticancer screen, dose series, 48 h
786-0 = test system: 786-0
A549 = test system: A549
ACHN = test system: ACHN
CCRF-CEM = test system: CCRF-CEM
COLO 205 = test system: COLO 205
DLD-1 = test system: DLD-1
DMS-114 = test system: DMS-114
DMS-273 = test system: DMS-273
EKVX = test system: EKVX
HCC 2998 = test system: HCC 2998
HCT-116 = test system: HCT-116
HCT-15 = test system: HCT-15
HL-60 = test system: HL-60
HOP-62 = test system: HOP-62
IGROV-1 = test system: IGROV-1
K562 = test system: K562
KM-20L2 = test system: KM-20L2
KM12 = test system: KM12
LOX IMVI = test system: LOX IMVI
LXFL 529 = test system: LXFL 529
M14 = test system: M14
M19-MEL = test system: M19-MEL
MOLT-4 = test system: MOLT-4
Malme-3M = test system: Malme-3M
NCI-H23 = test system: NCI-H23
NCI-H460 = test system: NCI-H460
NCI-H522 = test system: NCI-H522
OVCAR-3 = test system: OVCAR-3
OVCAR-5 = test system: OVCAR-5
OVCAR-8 = test system: OVCAR-8
RPMI-8226 = test system: RPMI-8226
RXF 393 = test system: RXF 393
SF-268 = test system: SF-268
SF-295 = test system: SF-295
SF-539 = test system: SF-539
SK-MEL-28 = test system: SK-MEL-28
SK-MEL-2 = test system: SK-MEL-2
SK-MEL-5 = test system: SK-MEL-5
SK-OV-3 = test system: SK-OV-3
SN12C = test system: SN12C
SNB-19 = test system: SNB-19
SNB-78 = test system: SNB-78
SW-620 = test system: SW-620
TK-10 = test system: TK-10
U-251 = test system: U-251
UACC-257 = test system: UACC-257
UACC-62 = test system: UACC-62
UO-31 = test system: UO-31
A498 = test system: A498
BT-549 = test system: BT-549
CAKI-1 = test system: CAKI-1
DU-145 = test system: DU-145
HOP-92 = test system: HOP-92
HT-29 = test system: HT-29
Hs-578T = test system: Hs-578T
MCF7 = test system: MCF7
MDA-MB-231 = test system: MDA-MB-231
MDA-MB-435 = test system: MDA-MB-435
MDA-N = test system: MDA-N
NCI-H226 = test system: NCI-H226
NCI/ADR-RES = test system: NCI/ADR-RES
OVCAR-4 = test system: OVCAR-4
PC-3 = test system: PC-3
SNB-75 = test system: SNB-75
SR = test system: SR
T47D = test system: T47D

O=S(=O)(c1cccc(N=C=S)c1)c1cccc(N=C=S)c1
GI50 (786-0): 16 µM (inactive)
GI50 (A549): > 100 µM (inactive)
GI50 (ACHN): 18.6 µM (inactive)
GI50 (CCRF-CEM): 5.51 µM (inactive)
GI50 (COLO 205): 19.5 µM (inactive)
GI50 (DLD-1): 19.2 µM (inactive)
GI50 (DMS-114): 15.5 µM (inactive)
GI50 (DMS-273): 18.7 µM (inactive)
GI50 (EKVX): > 100 µM (inactive)
GI50 (HCC 2998): 21.8 µM (inactive)
GI50 (HCT-116): 18.1 µM (inactive)
GI50 (HCT-15): 18.3 µM
GI50 (HL-60): 21.7 µM (inactive)
GI50 (HOP-62): 11.3 µM (inactive)
GI50 (IGROV-1): 18.7 µM (inactive)
GI50 (K562): 16.3 µM (inactive)
GI50 (KM-20L2): 31.5 µM (inactive)
GI50 (KM12): 27.5 µM (inactive)
GI50 (LOX IMVI): 17.7 µM (inactive)
GI50 (LXFL 529): 15.2 µM (inactive)
GI50 (M14): 11.4 µM (inactive)
GI50 (M19-MEL): > 10 µM (inactive)
GI50 (MOLT-4): 4.85 µM (inactive)
GI50 (Malme-3M): 18.9 µM (inactive)
GI50 (NCI-H23): 17.1 µM (inactive)
GI50 (NCI-H460): > 10 µM (inactive)
GI50 (NCI-H522): 16.7 µM (inactive)
GI50 (OVCAR-3): 11.6 µM (inactive)
GI50 (OVCAR-5): 47 µM (inactive)
GI50 (OVCAR-8): > 10 µM (inactive)
GI50 (RPMI-8226): 28.7 µM (inactive)
GI50 (RXF 393): 8.11 µM (inactive)
GI50 (SF-268): 18.2 µM (inactive)
GI50 (SF-295): 19.5 µM (inactive)
GI50 (SF-539): > 10 µM (inactive)
GI50 (SK-MEL-28): 18.2 µM (inactive)
GI50 (SK-MEL-2): 18.5 µM (inactive)
GI50 (SK-MEL-5): 19.7 µM (inactive)
GI50 (SK-OV-3): 19.2 µM (inactive)
GI50 (SN12C): 22 µM (inactive)
GI50 (SNB-19): 64.1 µM (inactive)
GI50 (SNB-78): 30.6 µM (inactive)
GI50 (SW-620): > 10 µM (inactive)
GI50 (TK-10): 20 µM (inactive)
GI50 (U-251): 18.9 µM (inactive)
GI50 (UACC-257): 20.4 µM (inactive)
GI50 (UACC-62): 19.1 µM (inactive)
GI50 (UO-31): 28.7 µM (inactive)

O=C(Nc1cnc(O)nc1O)Oc1ccccc1
GI50 (786-0): > 100 µM (inactive)
GI50 (A498): > 100 µM (inactive)
GI50 (A549): > 100 µM (inactive)
GI50 (ACHN): > 100 µM (inactive)
GI50 (BT-549): > 100 µM (inactive)
GI50 (CAKI-1): > 100 µM (inactive)
GI50 (CCRF-CEM): > 100 µM (inactive)
GI50 (COLO 205): > 100 µM (inactive)
GI50 (DU-145): > 100 µM (inactive)
GI50 (EKVX): > 100 µM (inactive)
GI50 (HCC 2998): > 100 µM (inactive)
GI50 (HCT-116): > 100 µM (inactive)
GI50 (HCT-15): > 100 µM
GI50 (HL-60): 14.3 µM (inactive)
GI50 (HOP-62): > 100 µM (inactive)
GI50 (HOP-92): > 100 µM (inactive)
GI50 (HT-29): > 100 µM (inactive)
GI50 (Hs-578T): > 100 µM (inactive)
GI50 (IGROV-1): > 100 µM (inactive)
GI50 (K562): > 100 µM (inactive)
GI50 (KM12): > 100 µM (inactive)
GI50 (LOX IMVI): > 100 µM (inactive)
GI50 (M14): > 100 µM (inactive)
GI50 (MCF7): > 100 µM (inactive)
GI50 (MDA-MB-231): > 100 µM (inactive)
GI50 (MDA-MB-435): > 100 µM (inactive)
GI50 (MDA-N): > 100 µM (inactive)
GI50 (MOLT-4): > 100 µM (inactive)
GI50 (Malme-3M): > 100 µM (inactive)
GI50 (NCI-H226): > 100 µM (inactive)
GI50 (NCI-H23): > 100 µM (inactive)
GI50 (NCI-H460): > 100 µM (inactive)
GI50 (NCI-H522): > 100 µM (inactive)
GI50 (NCI/ADR-RES): > 100 µM (inactive)
GI50 (OVCAR-3): > 100 µM (inactive)
GI50 (OVCAR-4): > 100 µM (inactive)
GI50 (OVCAR-5): > 100 µM (inactive)
GI50 (OVCAR-8): > 100 µM (inactive)
GI50 (PC-3): > 100 µM (inactive)
GI50 (RPMI-8226): > 100 µM (inactive)
GI50 (RXF 393): > 100 µM (inactive)
GI50 (SF-268): > 100 µM (inactive)
GI50 (SF-295): > 100 µM (inactive)
GI50 (SF-539): > 100 µM (inactive)
GI50 (SK-MEL-28): > 100 µM (inactive)
GI50 (SK-MEL-2): > 100 µM (inactive)
GI50 (SK-MEL-5): > 100 µM (inactive)
GI50 (SK-OV-3): > 100 µM (inactive)
GI50 (SN12C): > 100 µM (inactive)
GI50 (SNB-19): > 100 µM (inactive)
GI50 (SNB-75): > 100 µM (inactive)
GI50 (SR): > 100 µM (inactive)
GI50 (SW-620): > 100 µM (inactive)
GI50 (T47D): > 100 µM (inactive)
GI50 (TK-10): > 100 µM (inactive)
GI50 (U-251): > 100 µM (inactive)
GI50 (UACC-257): > 100 µM (inactive)
GI50 (UACC-62): > 100 µM (inactive)
GI50 (UO-31): > 100 µM (inactive)

COc1ccc(N[C@@H]2c3cc4c(cc3C(c3cc(OC)c(O)c(OC)c3)[C@H]3C(=O)OCC32)OCO4)cc1OC (some centres undefined)
GI50 (A498): > 100 µM (inactive)
GI50 (DMS-273): > 100 µM (inactive)
GI50 (EKVX): > 32.7 µM (inactive)
GI50 (HCT-15): > 100 µM
GI50 (HOP-92): > 100 µM (inactive)
GI50 (LOX IMVI): > 100 µM (inactive)
GI50 (NCI-H23): 0.297 µM (active)
GI50 (NCI/ADR-RES): > 19.9 µM (inactive)
GI50 (OVCAR-4): 20.3 µM (inactive)
GI50 (OVCAR-5): > 19.9 µM (inactive)
GI50 (SK-MEL-28): > 19.9 µM (inactive)
GI50 (UACC-257): 4.21 µM (inactive)
